Experimental data from PubChem BioAssay AID2842 (Southern Research Institute, 2010).
Converted amounts (≈) assume the structure as drawn.

tested on: M. tuberculosis H37Rv growth inhibition; assay: Mycobacterium tuberculosis H37Rv growth inhibition, putative kinase inhibitor library, confirmatory dose response (AID 2842);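 also: bacteria incubated one week before Alamar blue readout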

Row | Structure (SMILES) | IC90 [µg/mL]
1 | N#Cc1ccc(C(=O)Nc2nnc(-c3cccnc3)o2)cc1 | 53.3 (≈ 183 µM)
2 | CS(=O)(=O)c1ccc2nc(Nc3nc4ccc(Cl)cc4s3)sc2c1 | 9.7 (≈ 24.5 µM)
3 | CSc1ccccc1-c1nnc(NC(=O)c2cc([N+](=O)[O-])ccc2Cl)o1 | 2.12 (≈ 5.42 µM)
4 | CC(C)(C)C(=O)Nc1nnc(-c2ccc3c(c2)CCCC3)o1 | 4.73 (≈ 15.8 µM)
5 | CN(C)S(=O)(=O)c1ccc(C(=O)N2CC(=O)Nc3ccc(Br)cc3C2c2ccccc2)cc1 (stereo not given) | 35.3 (≈ 66.8 µM)
6 | CCOc1cc(-c2nnc(NC(=O)c3cc4ccccc4cc3OC)o2)cc(OCC)c1OCC | 2.68 (≈ 5.61 µM)
7 | COc1ccc(C(=O)Oc2cccc(Nc3ncnc4ccccc34)c2)cc1 | 15.1 (≈ 40.5 µM)
8 | COc1cccc(NC(=O)C2C(=O)CN(c3ccccc3)C2=O)c1 (stereo not given) | 4.41 (≈ 13.6 µM)
9 | O=C1NC(=S)NC(=O)C1=Cc1nc(-c2ccccc2Cl)n2ccccc12 | 10.8 (≈ 28.2 µM)
10 | CCOc1ccc(-c2nnc3c4cc5c(cc4n(Cc4ccccc4OC)cc2-3)OCO5)cc1 | 9.22 (≈ 20.3 µM)
11 | COc1ccc(Cl)cc1NC(=O)NC1CC(=O)N(c2ccc(C)c(C)c2)C1 (stereo not given) | 28.5 (≈ 73.5 µM)
12 | Cc1ccc(C)c(-c2nnc(NC(=O)c3ccc(Cl)cc3Cl)o2)c1 | 2.21 (≈ 6.1 µM)
13 | CC1=NC2C=CC(Cl)=CC2C(c2ccccc2)=C1C(=O)/C=C/c1nc2ccccc2[nH]1 (stereo not given) | 0.73 (≈ 1.71 µM)
14 | COc1ccccc1N1CCN(c2nc(Nc3ccc(F)cc3)c3nccnc3n2)CC1 | 27.6 (≈ 63.9 µM)
15 | Cc1cccc(Cn2cc3c(-c4ccc(C)c(C)c4)nnc-3c3cc4c(cc32)OCCO4)c1 | 3.47 (≈ 7.97 µM)
16 | CCN1C(=O)c2cccc3c(NC(=O)c4ccc(S(=O)(=O)N(C)C)cc4)ccc1c23 | 24.2 (≈ 57.2 µM)
17 | O=C1N/C(=N/N=C/c2ccccc2O)SC1Cc1ccc(Cl)cc1Cl (stereo not given) | 1.32 (≈ 3.35 µM)
18 | Cc1ccc(C)c(-c2nnc(NC(=O)c3cccc(F)c3)o2)c1 | 30.9 (≈ 99.2 µM)
19 | Cc1ccc(C(=O)Nc2sc3c(c2C(N)=O)CCN(C)C3)cc1C | 18.8 (≈ 54.7 µM)
20 | O=C(Nc1nnc(-c2ccccc2)o1)c1nc2ccccc2s1 | 5.84 (≈ 18.1 µM)
21 | Cc1ccc(N=C2NC(=O)C(Cc3ccccc3Cl)S2)cc1 (stereo not given) | 25.4 (≈ 76.9 µM)
22 | Fc1cccc2sc(N3CCCC3)nc12 | 86.3 (≈ 388 µM)
23 | O=C(CCOc1ccccc1)Nc1nnc(-c2ccc3c(c2)OCCO3)o1 | 95.9 (≈ 261 µM)

Row | Structure (SMILES) | IC90 [µg/mL]
24 | CCc1cccc(OCC(O)Cn2c(NCc3ccccc3)nc3c2c(=O)[nH]c(=O)n3C)c1 (stereo not given) | 22.1 (≈ 49.1 µM)
25 | CCOC(=O)N1CCN(c2ncnc3c2cnn3-c2ccc(C)cc2)CC1 | 21.4 (≈ 58.5 µM)
26 | O=C(NNc1nc2c(F)cccc2s1)c1cc2ccccc2oc1=O | 8.19 (≈ 23 µM)
27 | O=C(c1ccco1)N(CCCn1ccnc1)c1nc2ccc(F)cc2s1 | 1.94 (≈ 5.24 µM)
28 | CC(C)CCNC(=O)c1c(O)nc2sccn2c1=O | 13.1 (≈ 46.6 µM)
29 | CCN1CCc2c(sc(NC(=O)c3ccc([N+](=O)[O-])o3)c2C(N)=O)C1 | 6.91 (≈ 19 µM)
30 | CCC(=O)Nc1nnc(-c2cccs2)o1 | 17.1 (≈ 76.8 µM)
31 | CCCC(=O)Nc1nnc(-c2ccc(C)cc2C)o1 | 2.25 (≈ 8.68 µM)
32 | Cc1ccccc1C(=O)Nc1nnc(-c2ccccn2)o1 | 15.2 (≈ 54.2 µM)
33 | O=C(Nc1nnc(-c2ccc(Cl)cc2)o1)c1ccccc1Br | 2.46 (≈ 6.5 µM)
34 | Cc1ccc(-n2ccnc(NCC(C)c3ccccc3)c2=O)cc1C (stereo not given) | 18.1 (≈ 54.4 µM)
35 | O=C(NCCSc1c(-c2ccccc2)[nH]c2ccccc12)c1cc2ccccc2oc1=O | 2.71 (≈ 6.15 µM)
36 | Cc1cc(C)c2nc(NNC(=O)c3ccc(F)cc3)sc2c1 | 3.98 (≈ 12.6 µM)
37 | Cc1ccc(-c2nnc(NC(=O)c3ccccc3Br)o2)c(C)c1 | 0.27 (≈ 0.725 µM)
38 | CCOC(=O)N1CCc2c(sc(NC(=O)c3nc4ccccc4s3)c2C(N)=O)C1 | 3.48 (≈ 8.08 µM)
39 | COc1ccc(C)c2sc(N(CCCn3ccnc3)C(=O)c3cccs3)nc12 | 2.4 (≈ 5.82 µM)
40 | Cc1ccc2sc(N(CCCn3ccnc3)C(=O)c3ccco3)nc2c1C | 0.58 (≈ 1.52 µM)
41 | O=C(CCSc1ccccc1)Nc1nnc(-c2ccc3c(c2)CCCC3)o1 | 1.93 (≈ 5.09 µM)
42 | Cc1sc2nc(SCC#N)[nH]c(=O)c2c1C | 17.3 (≈ 69 µM)
43 | O=C(OCc1nc2ccccc2s1)c1ccc(C(=O)c2ccccc2)cc1 | 17.3 (≈ 46.2 µM)
44 | CC(=O)OCn1nnc2ccccc2c1=O | 3.33 (≈ 15.2 µM)
45 | O=C(Nc1nnc(-c2ccco2)o1)c1cccc(C(F)(F)F)c1 | < 0.2
46 | Cc1ccc(C(=O)Nc2nnc(-c3cc(C)ccc3C)o2)c(C)c1 | 7.29 (≈ 22.7 µM)

Row | Structure (SMILES) | IC90 [µg/mL]
47 | CC(C)OC(=O)c1ccc(NC(=O)C2COc3ccccc3O2)cc1 (stereo not given) | 7.2 (≈ 21.1 µM)
48 | CC(=O)Nc1nnc(-c2ccc(C)cc2C)o1 | 23.9 (≈ 103 µM)
49 | CC(C)C(=O)Nc1nnc(-c2ccccc2)o1 | 3.31 (≈ 14.3 µM)
50 | O=C(Nc1nnc(-c2cc(Cl)ccc2Cl)o1)c1ccc(Cl)cc1Cl | 0.74 (≈ 1.84 µM)
51 | COc1ccc(-c2nnc(NC(=O)c3ccccc3Br)o2)cc1 | 82.2 (≈ 220 µM)
52 | O=C(Nc1nnc(-c2ccc(Br)cc2)o1)c1cc(Cl)ccc1Cl | 2.67 (≈ 6.46 µM)
53 | COc1cccc(-c2nnc(NC(=O)C(C)C)o2)c1 | 32.7 (≈ 125 µM)
54 | CC(C)(C)C(=O)Nc1nnc(-c2cc(Cl)ccc2Cl)o1 | < 0.2
55 | CCOc1ccc(C(=O)Nc2nnc(-c3ccccn3)o2)cc1 | 1.03 (≈ 3.32 µM)
56 | O=C(Nc1nc(-c2ccc3c(c2)CCCC3)cs1)c1ccc2c(c1)OCCO2 | 14.5 (≈ 36.9 µM)
57 | Cc1ccc(C)c(-c2nnc(NC(=O)Cc3ccccc3)o2)c1 | 18.2 (≈ 59.4 µM)
58 | CCOC(=O)N1CCN(c2ncnc3c2cnn3-c2ccc(C)c(C)c2)CC1 | 9.11 (≈ 23.9 µM)
59 | C/C(=N\NC(=O)c1cc(-c2ccc(Cl)s2)[nH]n1)c1ccco1 | 6.9 (≈ 20.6 µM)
60 | COc1ccc2c(c1)c(=O)c(C(=O)c1ccc(C)cc1)cn2Cc1cccc(C)c1 | 6.97 (≈ 17.5 µM)
61 | Cc1ccc(-c2nnc3c4cc5c(cc4n(Cc4ccccc4F)cc2-3)OCCO5)cc1C | 6.25 (≈ 14.2 µM)
62 | O=C(Nc1nc(-c2ccc3c(c2)OCCO3)cs1)c1cccc(C(F)(F)F)c1 | 13.9 (≈ 34.3 µM)
63 | Fc1cccc2sc(Nc3nc(-c4cccs4)cs3)nc12 | 25.4 (≈ 76 µM)
64 | O=[n+]1c2ccccc2n([O-])c2ccccc21 | 3.52 (≈ 16.6 µM)
65 | O=C(NNc1nc2c(F)cc(F)cc2s1)c1coc2ccccc2c1=O | 3.33 (≈ 8.92 µM)
66 | N=C1SC(c2ccccc2)C(=O)N1c1nccs1 (stereo not given) | 30.1 (≈ 109 µM)
67 | COc1cccc(C(=O)Nc2nc3c(s2)CCc2ccccc2-3)c1 | 11.3 (≈ 33.6 µM)
68 | O=C(Nc1nnc(-c2ccc3c(c2)CCCC3)o1)c1sc2ccccc2c1Cl | 34.5 (≈ 84.2 µM)
69 | COc1ccc(-c2nnc3c4ccccc4n(Cc4cccc(C)c4)cc2-3)cc1 | 13.4 (≈ 35.3 µM)

Row | Structure (SMILES) | IC90 [µg/mL]
70 | O=C(Nc1nnc(-c2ccc(F)cc2)o1)c1ccco1 | 2.84 (≈ 10.4 µM)
71 | CCOC(=O)C(C)Sc1ncnc2c1nnn2Cc1ccc(F)cc1 (stereo not given) | 0.51 (≈ 1.41 µM)
72 | CS(=O)(=O)c1ccc(-c2nnc(NC(=O)c3ccc(Cl)s3)o2)cc1 | 1.67 (≈ 4.35 µM)
73 | O=C(Nc1nc2c(s1)CCc1ccccc1-2)c1cccc(Cl)c1 | 12.4 (≈ 36.5 µM)
74 | CCc1ccc2nc(Nc3nc4ccc(S(C)(=O)=O)cc4s3)sc2c1 | 7.52 (≈ 19.3 µM)
75 | CC(=O)c1ccc(C(=O)Nc2nnc(-c3cc(Cl)ccc3Cl)o2)cc1 | 94.4 (≈ 251 µM)
76 | CC(=O)N1CCc2c(sc(NC(=O)C(C)C)c2-c2nc3ccccc3s2)C1 | 13.5 (≈ 33.7 µM)
77 | C=CCOC(=O)COc1ccc2cc(-c3ccccc3)c(=O)oc2c1 | 1.22 (≈ 3.63 µM)
78 | CC(C)N1CCc2c(sc(NC(=O)c3ccc(S(=O)(=O)N(C)c4ccccc4)cc3)c2C(N)=O)C1 | 12.8 (≈ 25 µM)
79 | COc1ccc(CC2S/C(=N/N=C/c3ccccc3O)NC2=O)cc1 (stereo not given) | < 0.2
80 | Cc1oc2c(c1C(=O)NCc1cccnc1)C(=O)c1ccccc1C2=O | 8.29 (≈ 23.9 µM)
81 | CCOC(=O)c1ccc(-n2cc(O)c(C(=O)OCC)n2)cc1 | 20 (≈ 65.7 µM)
82 | Cc1cccc(C(=O)Nc2nnc(-c3cc(Cl)ccc3Cl)o2)c1 | 32 (≈ 91.9 µM)
83 | COc1ccc(NC(=O)c2cccc3nc4ccccc4nc23)c(OC)c1 | 4.07 (≈ 11.3 µM)
84 | Cc1cc(NS(=O)(=O)c2ccc(NC(=O)CCCOc3ccc(Cl)cc3)cc2)no1 | 19.1 (≈ 42.5 µM)
85 | CC1CCCN(c2nc3c(c(=O)[nH]c(=O)n3C)n2CCCSc2nc3ccccc3s2)C1 (stereo not given) | 16.6 (≈ 35.3 µM)
86 | O=C(Nc1cccc(C(F)(F)F)c1)NC1CC(=O)N(c2cccc(F)c2)C1 (stereo not given) | 8.52 (≈ 22.3 µM)
87 | COc1cccc2sc(Nc3nnc(-c4ccccc4)o3)nc12 | 6.08 (≈ 18.7 µM)
88 | Cc1nnsc1C(=O)Nc1ccc([N+](=O)[O-])cc1C(F)(F)F | 28.1 (≈ 84.5 µM)
89 | C/C(=N\Nc1nc(=O)[nH]nc1C)c1ccccc1O | < 0.2
90 | CC(=O)N1CCc2c(sc(NC(=O)c3ccc(-c4ccccc4)cc3)c2C(N)=O)C1 | 20.4 (≈ 48.7 µM)
91 | O=C1CC(c2nc3ccccc3n2Cc2ccccc2Cl)CN1c1ccccc1F (stereo not given) | 18.1 (≈ 43.2 µM)
92 | COC(=O)CSCC(=O)Nc1nnc(-c2ccccc2C)s1 | 13.7 (≈ 40.7 µM)

Row | Structure (SMILES) | IC90 [µg/mL]
93 | COc1ccc(CNc2nccn(-c3cc(C)c(Cl)cc3OC)c2=O)cc1 | 18.1 (≈ 46.8 µM)
94 | O=C(CSc1ncnc2c1oc1ccccc12)OCc1ccccc1 | 12.1 (≈ 34.6 µM)
95 | NC(=O)c1c(NC(=O)c2ccc([N+](=O)[O-])s2)sc2c1CCN(Cc1ccccc1)C2 | 0.46 (≈ 1.04 µM)
96 | CCOc1ccc2nc(N(CCCn3ccnc3)C(=O)c3ccc(F)cc3)sc2c1 | 7.77 (≈ 18.3 µM)
97 | O=C(Nc1nnc(-c2ccc(Br)cc2)o1)c1ccc2c(c1)CCCC2 | 16.8 (≈ 42.1 µM)
98 | Cc1ccc(C)c(-c2nnc(NC(=O)c3ccc(Br)s3)o2)c1 | 6.75 (≈ 17.8 µM)
99 | Cc1ccc(Nc2nc(N3CCN(c4ccc(F)cc4)CC3)nc3nccnc23)cc1C | 22.8 (≈ 53 µM)
100 | Fc1cc(F)c2nc(N3CCCC3)sc2c1 | 18.2 (≈ 76 µM)
101 | COc1cccc2sc(Nc3nc4ccc(Cl)cc4s3)nc12 | 13.9 (≈ 40 µM)
102 | O=C(Cc1cccc2ccccc12)Nc1nnc(-c2cc(Cl)ccc2Cl)o1 | 94.5 (≈ 237 µM)
103 | CN1CCc2c(sc(NC(=O)c3ccc([N+](=O)[O-])o3)c2C(N)=O)C1 | 10.5 (≈ 30.1 µM)
104 | O=C(NCCSc1c[nH]c2ccccc12)Nc1c[nH]c2ccccc12 | 10.2 (≈ 29.1 µM)
105 | Cc1ccccc1C(=O)Nc1nnc(-c2ccc(Cl)cc2)o1 | 0.55 (≈ 1.75 µM)
106 | Cc1ccc2[nH]c(=O)c(C3=NN(C(=O)c4ccco4)C(c4ccco4)C3)c(-c3ccccc3)c2c1 (stereo not given) | 15.4 (≈ 33.3 µM)
107 | Cc1ccc(C)c(-c2nnc(NC(=O)c3ccc(S(=O)(=O)N(C)C4CCCCC4)cc3)o2)c1 | 58.3 (≈ 124 µM)
108 | Cc1ccc2nc(NNC(=O)c3cc4ccccc4oc3=O)sc2c1 | 1.75 (≈ 4.98 µM)
109 | COc1ccc(-c2nsc(SCC(=O)Nc3ccc(C(C)=O)cc3)n2)cc1 | 25.9 (≈ 64.9 µM)
110 | O=C(Nc1nnc(-c2ccc(Br)cc2)o1)c1ccc([N+](=O)[O-])cc1 | 50.9 (≈ 131 µM)
111 | O=C(CSc1c[nH]c2ccccc12)Nc1ccc(Br)cc1 | 3.2 (≈ 8.86 µM)
112 | O=C(Nc1nnc(-c2ccc(Cl)cc2)o1)c1ccc([N+](=O)[O-])o1 | 0.26 (≈ 0.777 µM)
113 | COc1cc(/C=C(\C#N)c2nc(-c3ccc(C)cc3)cs2)cc([N+](=O)[O-])c1O | 3.26 (≈ 8.29 µM)
114 | Cc1ccc(-c2nnc(NC(=O)C3CCCCC3)o2)c(C)c1 | 8.75 (≈ 29.2 µM)
115 | Cc1ccc(-c2nnc(NC(=O)c3ccc(S(=O)(=O)N(C)C4CCCCC4)cc3)o2)c(C)c1 | 39.2 (≈ 83.6 µM)
